Data from US5336485A, “Method for protecting animals against tacrine induced cytotoxic injury using sterol compounds” (priority 1993, dated 1994).
Where a name gives a salt, the structure may show the parent alone.

Test system: liver
Experiment: CCl4 induced hepatotoxicity in rats (serum AST/ALT)
Assay type: in vivo, rat
Conditions: for protection against CCl4 hepatotoxicity (in words): rats, serum enzyme levels; for inhibition in vivo at 100 mg/kg: Rattus norvegicus, ip, 48 h, read-out: % Hepatoprotection
Description: In vivo experiments were performed to determine if alpha-TS administration protects the liver from chemical toxicity. The liver is the target organ for CCl4. CCl4 is a hepatotoxic agent that induces centrilobular liver necrosis through its metabolism to free radicals. Male Sprague-Dawley rats were given an intraperitoneal dose (100 mg/kg) of a tocopherol analog 24 hours prior to a CCl4 challenge (2.9g/kg given by oral garage). Forty eight hours after the challenge, the rats were sacrificed and the levels of aspartate aminotransferase (AST) and alanine aminotransferase (ALT) were measured.
As discussed above, SGOT levels provide a clinical assessment of hepatotoxicity (liver damage).
Succinate analogs were administered to male Sprague-Dawley rats 20 hours prior to a 1 g CCl4 /kg body weight oral challenge and the AST and ALT serum enzyme levels were measured 48 hours after the challenge.
Similar to the experiments were described above, the ionizable congeners were administered to Sprague-Dawley rats by i.p. injection of a 100 mg ionizable congener/kg body weight dose 20 hours prior to oral administration of a 1 g/kg dose of CCl4, and the AST and ALT levels were measured 48 hours after the CCl4 challenge.

[1] = 100 mg/kg ip, 48 h after 1 g/kg CCl4 (Table 31)
[2] = 100 mg/kg ip, 48 h after 1 g/kg CCl4 (Table 33)
[3] = 100 mg/kg ip, PEG 400 vehicle, 48 h after 1 g/kg CCl4 (Table 34)
[4] = 100 mg/kg ip, peanut oil vehicle, 48 h after 1 g/kg CCl4 (Table 39)
[5] = 100 mg/kg ip, 48 h after 1 g/kg CCl4 (Table 37)
[6] = 20 h prior, 48 h after 1 g/kg CCl4 (Table 36)
[7] = 100 mg/kg ip, 48 h after 1 g/kg CCl4 (Table 38)
[8] = 100 mg/kg ip, 48 h after 1 g/kg CCl4 (Table 40)
[9] = 100 mg/kg ip, 48 h after 1 g/kg CCl4 (Table 42)

In the case of `CC(=O)O[C@H]1CC[C@@]2(C)C(=CC[C@H]3[C@@H]4CC[C@H]([C@H](C)CCCC(C)C)[C@@]4(C)CC[C@@H]32)C1` [Cholesterol acetate, reference compound], the ALT [1] is reported as 0.96 ± 0.32 10^3 units/L, the AST [1] is reported as 3.06 ± 1.06 10^3 units/L and the “protection against CCl4 hepatotoxicity (in words)” value (“protection” below) is reported as “provided no protection”.
With `CC(C)CCC[C@@H](C)[C@H]1CC[C@H]2[C@@H]3CC=C4C[C@@H](OS(=O)(=O)O)CC[C@]4(C)[C@H]3CC[C@]12C` [Cholesteryl 3-sulfate, sodium salt] the ALT [2] was 0.240 ± .133 10^3 units/L, the AST [2] was 0.86 ± 0.35 10^3 units/L and the inhibition in vivo at 100 mg/kg was 90%. The “protection” value was “potent cytoprotective agents in vivo”.
With `CC(C)CCC[C@@H](C)[C@H]1CC[C@H]2[C@@H]3CC=C4C[C@@H](OC(=O)c5ccccc5C(=O)O)CC[C@]4(C)[C@H]3CC[C@]12C` [Cholesteryl hydrogen phthalate] the ALT [3] was 0.06 ± 0.03 10^3 units/L, the AST [3] was 0.30 ± 0.12 10^3 units/L and the inhibition in vivo at 100 mg/kg was 100%. The “protection” value was “potent cytoprotective agents in vivo”.
`C[C@]12CC[C@H](OC(=O)CCC(=O)O)CC1=CC[C@@H]1[C@@H]2CC[C@]2(C)C(=O)CC[C@@H]12` [Dehydroepiandosterone 3-succinate] was tested, and the ALT [4] was 3.89 ± 1.77 10^3 units/L, the AST [4] was 10.42 ± 3.36 10^3 units/L and the inhibition in vivo at 100 mg/kg was 0%.
In the case of `C[C@]12CC[C@H](OS(=O)(=O)O)CC1=CC[C@@H]1[C@@H]2CC[C@]2(C)C(=O)CC[C@@H]12` [Dehydroepiandosterone 3-sulfate], the ALT [3] is reported as 3.89 ± 0.81 10^3 units/L, the AST [3] is reported as 13.85 ± 0.37 10^3 units/L and the inhibition in vivo at 100 mg/kg is reported as 4%.
In the case of `CC(C)CCC[C@@H](C)[C@H]1CC[C@H]2[C@@H]3CC[C@H]4C[C@@H](OC(=O)CCC(=O)O)CC[C@]4(C)[C@H]3CC[C@]12C` [Dihydrocholesterol succinate, tris salt], the ALT [5] is reported as 0.09 ± 0.03 10^3 units/L, the AST [5] is reported as 0.19 ± 0.05 10^3 units/L and the inhibition in vivo at 100 mg/kg is reported as 100%.
`CC(C)CCC[C@@H](C)[C@H]1CC[C@H]2[C@@H]3CC[C@H]4C[C@@H](OC(=O)CCC(=O)O)CC[C@]4(C)[C@H]3CC[C@]12C` [Dihydrocholesterol succinate] was tested, and the ALT [6] was 0.39 ± 0.40 10^3 units/L, the AST [6] was 0.44 ± 0.29 10^3 units/L and the “protection” value was “complete protection against hepatotoxicity”.
For `CC(C)[C@@H](C)/C=C/[C@@H](C)[C@H]1CC[C@H]2C3=CC=C4C[C@@H](OC(=O)CCC(=O)O)CC[C@]4(C)[C@H]3CC[C@]12C` [Ergosterol succinate, tris salt], the ALT [7] was 0.46 ± 0.25 10^3 units/L, the AST [7] was 0.80 ± 0.28 10^3 units/L and the inhibition in vivo at 100 mg/kg was 80%. For the same compound, the “protection” value was “protection against hepatotoxicity”.
`CC(C)[C@@H](C)/C=C/[C@@H](C)[C@H]1CC[C@H]2C3=CC=C4C[C@@H](OS(=O)(=O)O)CC[C@]4(C)[C@H]3CC[C@]12C` [Ergosterol sulfate, potassium salt] was tested, and the ALT [7] was 0.28 ± 0.37 10^3 units/L, the AST [7] was 0.58 ± 0.53 10^3 units/L and the inhibition in vivo at 100 mg/kg was 86%. The “protection” value was “protection against hepatotoxicity”.
With `CC(C)[C@@H](C)/C=C/[C@@H](C)[C@H]1CC[C@H]2C3=CC=C4C[C@@H](O)CC[C@]4(C)[C@H]3CC[C@]12C` [Ergosterol, reference compound] the ALT [7] was 0.93 ± 0.48 10^3 units/L, the AST [7] was 1.73 ± 0.58 10^3 units/L and the ALT [4] was 0.63 ± 0.45 10^3 units/L. The AST [4] was 1.90 ± 0.73 10^3 units/L and the “protection” value was “cytoprotection from toxic CCl4 insults”.
In the case of `C[C@]12CC[C@@H]3c4ccc(OC(=O)CCC(=O)O)cc4CC[C@H]3[C@@H]1CCC2=O` [Estrone 3-Succinate], the ALT [8] is reported as 0.51 ± 0.56 10^3 units/L, the AST [8] is reported as 1.71 ± 1.00 10^3 units/L and the ALT [9] is reported as 0.32 ± 0.12 10^3 units/L. The AST [9] was 0.70 ± 0.20 10^3 units/L and the “protection” value was “slight cytoprotection”.
For `CC(=O)Oc1ccc2c(c1)CCC1C2CC[C@]2(C)C(=O)CCC12` (stereo partly shown) [Estrone Acetate, reference compound], the ALT [9] was 0.18 ± 0.08 10^3 units/L and the AST [9] was 0.53 ± 0.24 10^3 units/L.
